The values below come from publication PMC9440176, “Novel benzylidene benzofuranone analogues as potential anticancer agents: design, synthesis and in vitro evaluation based on CDK2 inhibition assays” (3 Biotech, 2022).

Assay [1] can be described thus: ABTS.+ radical scavenging assay. As for the experimental part: The assay was performed in a 96-well plate by serial dilution method. A 2 mM ABTS^.+ working solution was prepared in a phosphate buffer (Zheleva-Dimitrova et al [2010]).To this, 200 μL of aqueous potassium per sulfate (70 mM) solution was added and the solution was incubated for 24 h in the dark at room temperature to develop a blue-green color. To 30 μL of ABTS^.+ working solution, 50 μL of different concentrations (3.9–1000 μM) of the test sample solution and 170 μL of phosphate buffer (pH-7.4) were added in a well. The plate was then incubated in the dark at room temperature for 10 min. Then absorbance was measured at 690 nm using Elisa reader. Quercetin and ascorbic acid were used as standards. The percentage scavenging of ABTS^.+ was calculated using the formula, (Control Absorbance–Test Absorbance)*100/(Control Absorbance) and the anti-oxidant activity was expressed in terms of IC50 value.

Assay [2] is described as follows: DPPH. free radical scavenging assay. As for the experimental part: DPPH. assay was performed using 96-well plate by serial dilution method. The dilution of methanolic stock solution of the test compounds and standard anti-oxidants was carried out to obtain concentration in the range of 3.9–1000 µM. Quercetin and ascorbic acid were used as standards. To a 100 μL of this solution, 100 μL of 200 µM DPPH^. in methanolic solution was added. The experiment was done in triplicate and the plate was then incubated for 30 min in the dark and later the absorbance was measured at 517 nm using Elisa reader. The percentage DPPH^. Scavenging was calculated using the formula, (Control Absorbance–Test Absorbance)*100/(Control Absorbance). The anti-oxidant activity of the test compounds was expressed in terms of concentration required for 50 percentage inhibition (IC50) (Collins [2005]).

The next assay concerns HCT 116. The assay can be described thus: MTT cytotoxicity assay on HCT 116. The format is cell-based, Human. As to conditions: 24 h, read-out: Inhibition of cell proliferation, IC50, HCT 116. As for the experimental part:
(§1) The monolayer cell culture was trypsinized and the cell count was adjusted to 5.0 × 10^5 cells/ml using respective media containing 10% FBS. To each well of the 96-well microtiter plate, 100 µL of the diluted cell suspension (50,000cells/well) was added. After 24 h, when a partial monolayer was formed, the supernatant was flicked off, the monolayer was then washed once again with the medium and 100 µL of different test concentrations of test drugs were added on to the partial monolayer in microtiter plates. The plates were then incubated at 37 °C for 24 h in 5% CO2 atmosphere. After incubation, the test solutions in the wells were discarded and 100 µL of MTT (5 mg/10 ml of MTT in PBS) was added to each well. The plates were then incubated for 4 h at 37 °C in 5% CO2 atmosphere. The supernatant was then removed and 100 µL of DMSO was added and the plates were gently shaken to solubilize the formed formazan. The absorbance was measured using a microtiter plate reader at a wavelength of 590 nm. The percentage growth inhibition was thus calculated using the following formula and the concentration of the test drug required to inhibit the cell growth by 50% (IC50) values is generated from the dose–response curves for each one of the cell lines (Meerloo et al. [2011]).
(§2) The test compounds were screened for their in vitro cytotoxicity by MTT assay against two cancer cell lines, namely MCF-7, HCT-116 and normal epithelial kidney cells (Vero). Doxorubicin was used as a reference standard.

Assay [3] deals with normal epithelial kidney cells (Vero). The assay can be described thus: MTT cytotoxicity assay on Vero. The assay is classed as cell-based. As to conditions: 24 h, read-out: Inhibition of cell proliferation, IC50, Vero. The procedure: as §1, §2
A further assay concerns HCT116 cells. The assay can be described thus: Comet assay (DNA damage). The format is cell-based, Human. As to conditions: 24 h, HCT-116. As for the experimental part: To assess the genotoxicity effect of newly synthesized aurones, comet assay was performed on HCT -116 cell lines.
The agarose-coated glass slides were prepared according to the standard procedure (Tice et al. [2000]).
Compound selected—NISOA4.
Cell line used were- HCT116 cells (Human colorectal cancer cell lines).
HCT -116 (1 × 10^6) cells were treated with two different concentrations, 12.5, 25 μM of NISOA4 for 24 h.
The cells were centrifuged at 2000 rpm at 4 °C for 5 min followed by washing with PBS. Further, it was air dried and pellet was dissolved once again in PBS.
After keeping slides at 4 °C for 2 h, slides were removed from the lysis buffer and were placed side by side on a horizontal gel box near one end, sliding them as close together as possible.
The slides were placed on ice for 10 min and submerged in lysis buffer (2.5% NaCl, 100 mM EDTA, 10 mM Tris, 10% DMSO and 1% Troton X-100) at pH 10 at 4 °C for more than 1 h.
In the next step, the buffer reservoir was filled with freshly made electrophoresis buffer (pH > 13) until the liquid level was enough to cover the slides. […]
Slides were stained with 80 µL 1× Ethidium Bromide and left aside for 10 min followed by washing with PBS to remove the excess of stain. The slides were then scored immediately after washing.
The visualization of DNA damage was observed based on EtBr-staining technique using a 40× objective on a fluorescent microscope. The assessment of both qualitative as well as quantitative extent of DNA damage in the cells were carried out by measuring the length of DNA migration and the percentage of the migrated DNA using ImageJ software with open comet plug-in. Generally, 50 to 100 randomly selected cells are analysed per sample. Finally, the total tail amount was calculated. The final results are assessed by using the following parameters: (i)amount of migration per cell (ii) the number of cells with increased migration (iii) the extent of migration among damaged cells and (iv) cell viability (Końca et al. [2003]).

For `COc1ccc(/C=C2\Oc3c(c(OC)cc(OC)c3C3=CCN(C(C)C)CC3)C2=O)cc1OC` [NISOA4], the IC50 is 127 ± 12.5 µM in assay [1], 159 ± 0.45 µM in assay [2], 21.2 µM in the assay on HCT 116 and > 200 µM in assay [3]. Further, the “Olive moments (Mean ± SD)” value in the assay on HCT116 cells (12.5 µM) worked out at 25.38; with HCT116 cells (12.5 µM, listed as NISOA04), 25.384 ± 24.333; in the assay with HCT116 cells (25 µM, listed as NISOA04), 73.582 ± 97.498.
